Source: patent US20170050945A1, “COMPOSITIONS AND METHODS FOR THE TREATMENT OF SARCOIDOSIS” (INSMED INCORPORATED, priority 2015, published 2017)

Columns and labels:
[1] = target: T1, Human Inosine 5′-Monophosphate Dehydrogenase 1 (IMPDH) (Homo sapiens, UniProt P20839); experiment: Inhibition of human inosine 5′-monophosphate dehydrogenase (IMPDH assay kit); type: biochemical
T1 construct: purchased R&D Systems 8904DH
Excerpt: Human Inosine 5′-Monophosphate Dehydrogenase 1 (IMPDH) catalyzes the nicotinamide adenine dinucleotide (NAD)-dependent oxidation of inosine-5′-monophosphate (IMP) to xanthosine-5′-monophosphate (XMP), which is the committed step in de novo guanosine nucleotide biosynthesis. B and T lymphocytes depend on IMPDH activity to generate the guanosine nucleotide levels needed to initiate a proliferative response to mitogen or antigen.
A comparison of the ability of MPA and hexadecyl mycophenolate (mono-C16MP) to inhibit IMPDH was undertaken.
IMPDH (R&D Systems 8904DH) was incubated with mycophenolic acid (MPA) and, separately, mono-C16MP at concentrations ranging from about 0.015 to 15 μM. The IMPDH activity was determined using a BMR Service IMPDH assay kit (E-119).
Inhibition of IMPDH was calculated as a percentage of IMPDH activity in the absence of MPA.

[2] = Lung to plasma MPA ratio after inhaled dosing of MPS, MMF or mono-C16MP in mice; type: in vivo; details: inhalation, C57BL/6 mice, 0-6 h post-dose
Experimental: Studies to determine the lung to plasma ratio obtained by inhalation of mycophenolate sodium (MPS), mycophenolate mofetil (MMF), and hexadecyl mycophenolate (mono-C16MP) were conducted.
In each study group, C57BL/6 mice were given MPS, MMF or mono-C16MP by inhalation and the lung and plasma mycophenolic acid (MPA) concentrations were measured at t=0, 0.5, 1, 2, 4, and 6 h post-dose.
For each mouse in the study, the lung to plasma MPA ratios were calculated; the individual calculated ratios were averaged for each treatment group and the average values were plotted, shown in FIG. 6.

[3] = test system: LPS-stimulated TNF-α production in THP-1 derived human macrophages; experiment: Inhibition of LPS-stimulated TNF-α production in human THP-1 derived macrophages, TNF ELISA; type: cell-based; details: 4 h pre-incubation, then 100 pg/mL LPS for 16 h
Experimental: (§1) THP-1 cells were cultured in media with 50 ng/mL phorbol myristate acetate (PMA) for 24 h and then in fresh media without PMA for an additional 24 h. […] The well plates were treated with mycophenolate sodium at concentrations ranging from 0.03 to 10 μm and incubated for a period for 4 h. After this period, LPS was added to each well plate at a concentration of 100 pg/mL and the LPS-, mycophenolate-treated well plates were incubated for 16 h. After 16 h, the cell supernatants were collected for TNF measurement and the remaining macrophages were assessed for cytotoxicity. TNF concentrations were assayed using a human TNF ELISA kit available from ThermoFisher. Cytotoxicity was determined using the CellTox green assay available from Promega.
(§2) Inhibition of TNF-α production was calculated as a percentage of LPS-stimulated TNF production in the absence of mycophenolate sodium.

[4] = test system: rat alveolar macrophages (NR8383); experiment: Cytotoxicity toward rat alveolar macrophages (NR8383), CellTox green assay; type: cell-based; details: NR8383 cells, any concentration tested (0.15 to about 15 μm), 20 h
Experimental: (§3) Rat alveolar macrophages (NR8383) were co-treated with 25 ng/mL lipopolysaccharide (LPS) and mycophenolate sodium at concentrations ranging from 0.15 to about 15 μm for a period of 20 h. After this period, the cell supernatants were collected for TNF measurement and the remaining macrophages were assessed for cytotoxicity. TNF concentrations were assayed using a rat TNF ELISA kit available from ThermoFisher. Cytotoxicity was determined using the CellTox green assay available from Promega.
as §2

[5] = test system: THP-1 derived human macrophages; experiment: Cytotoxicity toward human THP-1 derived macrophages, CellTox green assay; type: cell-based
Experimental: as §1, §2

[6] = test system: LPS-stimulated TNF-α production in rat alveolar macrophages (NR8383); experiment: Inhibition of LPS-stimulated TNF-α production in rat alveolar macrophages (NR8383), TNF ELISA; type: cell-based; details: Macrophage, NR8383 cells, co-treated with 25 ng/mL LPS, 20 h
Experimental: as §3, §2

T1 sequence (P20839 whole entry): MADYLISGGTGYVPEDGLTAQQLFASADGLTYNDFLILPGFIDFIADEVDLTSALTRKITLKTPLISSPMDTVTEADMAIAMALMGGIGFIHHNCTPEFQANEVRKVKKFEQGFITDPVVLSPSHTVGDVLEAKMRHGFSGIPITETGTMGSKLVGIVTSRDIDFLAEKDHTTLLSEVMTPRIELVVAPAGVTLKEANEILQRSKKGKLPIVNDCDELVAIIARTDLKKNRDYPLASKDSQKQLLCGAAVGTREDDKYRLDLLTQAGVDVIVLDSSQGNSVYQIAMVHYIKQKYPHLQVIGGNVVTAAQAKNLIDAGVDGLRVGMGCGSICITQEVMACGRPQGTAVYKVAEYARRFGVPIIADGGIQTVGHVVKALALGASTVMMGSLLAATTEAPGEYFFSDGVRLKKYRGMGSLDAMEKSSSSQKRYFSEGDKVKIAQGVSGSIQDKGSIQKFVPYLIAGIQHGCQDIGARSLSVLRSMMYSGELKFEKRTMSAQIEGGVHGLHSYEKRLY

## COc1c(C)c2c(c(O)c1C/C=C(\C)CCC(=O)O)C(=O)OC2 [MPA, (4E)-6-(4-hydroxy-6-methoxy-7-methyl-3-oxo-1,3-dihydro-2-benzofuran-5-yl)-4methylhex-4-enoic acid]
[1]
  IC50: 140 nM

## CCCCCCCCCCCCCCCCOC(=O)CC/C(C)=C/Cc1c(O)c2c(c(C)c1OC)COC2=O [mono-C16MP, hexadecyl mycophenolate]
[2]
  Lung to plasma exposure ratio of MPA compared to the ratio obtained with MPS or MMF: higher lung to plasma exposure ratio
[1]; about 0.015 to 15 μM tested
  Inhibition of IMPDH: does not inhibit IMPDH in a concentration-dependent manner

## COc1c(C)c2c(c(O)c1C/C=C(\C)CCC(=O)O)C(=O)OC2 [mycophenolate sodium]
[3]
  Emax: 67%
  IC50: 1400 nM
[4]
  Cytotoxicity: no significant cytotoxicity
[5]; 3 μM, P<0.05
  Cytotoxicity: 6.6%
[5]; 10 μM, P<0.05
  Cytotoxicity: 8.9%
[5]; concentrations <3 μM
  Cytotoxicity: no significant cytotoxicity
[6]
  Emax: 54%
  IC50: 1500 nM
